Measurements reported in EP0679394B1, “Menatetronome derivative as antiarteriosclerotic agent” (Eisai Co., Ltd., priority 1994, dated 1995).

How the values were obtained:
arteriosclerotic rats = assay: Effect of vitamin K2 on arteriosclerotic rats (vitamin D2-induced calcification); assay type: in vivo
Description: Then vitamin D2, vitamin D2 with vitamin K2 (in a low dose), and vitamin D2 with vitamin K2 (in a high dose) were given respectively to the groups A, B and C.
After feeding for five weeks, the urine of each group was sampled for a period of 20 hours and the urinary calcium, phosphorus and creatinine levels were measured.
After feeding for six weeks, the animals of each group were bled to death and the blood, aorta (from the aortic arch to the thoracic aorta) and kidneys were sampled.
The serum was separated from the blood and the serum calcium and phosphorus levels were measured.
The aorta and kidneys were defatted, dehydrated and incinerated and the calcium and phosphorus contents therein were determined.
The calcium concentrations were determined by atomic absorption spectrophotometry. The inorganic phosphorus concentrations were determined by Goldenberg's method. The creatinine concentrations were determined by the enzymatic method.
(The data of each group were compared with those of the control group according to the t-test method.)

[1] = Acute (single administration) toxicity test in mice; assay type: in vivo, ICR mice; settings: in vivo, Mouse M, medium 5% gum arabic
Description: (§1) Next, the results of the acute toxicity test of 2-methyl-3-[(2E,6E,10E)-3,7,11,15-tetramethyl-2,6,10,14-hexadecatetraenyl]naphthoquinone (generic name: vitamin K2), which is a typical example of the compound of the present invention, will be given. An acute toxicity test was conducted as follows:
(§2) A single administration toxicity test was effected by orally, subcutaneously and intraperitoneally administering the test compound (medium: 5% gum arabic) to SD rats, ICR mice and beagles aged 7 to 8 weeks (5 females and 5 males in each case).

ICR mice = assay: as above; assay type: in vivo; settings: Mouse F, medium 5% gum arabic
Description: as §1, §2

[2] = Acute (single administration) toxicity test in rats; assay type: in vivo, SD rats; settings: in vivo, Rat M, medium 5% gum arabic
Description: as §1, §2

SD rats = assay: as above; assay type: in vivo; settings: Rat F, medium 5% gum arabic
Description: as §1, §2

beagles = assay: Acute (single administration) toxicity test in beagles; assay type: in vivo; settings: Beagle F, medium 5% gum arabic
Description: as §1, §2

[3] = as above; assay type: in vivo; settings: dog, in vivo, Beagle M, medium 5% gum arabic
Description: as §1, §2

[4] = Group A: vitamin D2 2.5 × 10^5 IU/kg/day p.o. alone, 6 weeks, n=8

For `C=C1CC[C@H](O)C/C1=C/C=C1\CCC[C@]2(C)[C@@H]([C@H](C)/C=C/[C@H](C)C(C)C)CC[C@@H]12` [vitamin D2], the “Aorta Ca” value (arteriosclerotic rats; [4]) was 11.6 ± 11.1 mg/dL, the “Aorta P” value (arteriosclerotic rats; [4]) was 10.9 ± 7.1 mg/dL and the “Kidney Ca” value (arteriosclerotic rats; [4]) was 7.6 ± 7.8 mg/dL. The “Kidney P” value (arteriosclerotic rats; [4]) was 7.2 ± 2.0 mg/dL and the “calcium and phosphorus contents in the aorta” value (arteriosclerotic rats; group A, vitamin D2 2.5 × 10^5 IU/kg/day p.o. alone, 6 weeks) was “significant increases”.

In the case of `CC(C)=CCC/C(C)=C/CC/C(C)=C/CC/C(C)=C/CC1=C(C)C(=O)c2ccccc2C1=O` [vitamin K2, 2-Methyl-3-[(2E,6E,10E)-3,7,11,15-tetramethyl-2,6,10,14-hexadecatetraenyl]naphthoquinone], the LD50 ([1]; ip, intraperitoneal) is reported as greater than 5000 mg/kg, the LD50 ([1]; oral) is reported as greater than 5000 mg/kg and the LD50 ([1]; sc, subcutaneous) is reported as greater than 5000 mg/kg. For the same compound, the LD50 (ICR mice; intraperitoneal) was greater than 5000 mg/kg, the LD50 (ICR mice; oral) was greater than 5000 mg/kg and the LD50 (ICR mice; subcutaneous) was greater than 5000 mg/kg. For the same compound, the LD50 ([2]; ip, intraperitoneal) was greater than 5000 mg/kg, the LD50 ([2]; oral) was greater than 5000 mg/kg and the LD50 ([2]; sc, subcutaneous) was greater than 5000 mg/kg. The LD50 (SD rats; intraperitoneal) was greater than 5000 mg/kg, the LD50 (SD rats; oral) was greater than 5000 mg/kg and the LD50 (SD rats; subcutaneous) was greater than 5000 mg/kg. It also gave an LD50 (beagles; intraperitoneal) greater than 3000 mg/kg, an LD50 (beagles; oral) greater than 3000 mg/kg and an LD50 (beagles; subcutaneous) greater than 3000 mg/kg. It also gave an LD50 ([3]; ip, intraperitoneal) greater than 3000 mg/kg, an LD50 ([3]; oral) greater than 3000 mg/kg and an LD50 ([3]; sc, subcutaneous) greater than 3000 mg/kg. For the same compound, the “Aorta Ca” value (arteriosclerotic rats; po, 10 mg/kg, 1008 h) was 5.0 ± 3.8 mg/dL, the “Aorta P” value (arteriosclerotic rats; po, 10 mg/kg, 1008 h) was 12.6 ± 12.2 mg/dL and the “Kidney Ca” value (arteriosclerotic rats; po, 10 mg/kg, 1008 h) was 3.4 ± 3.8 mg/dL. The “Kidney P” value (arteriosclerotic rats; po, 10 mg/kg, 1008 h) was 6.3 ± 2.7 mg/dL, the “Aorta Ca” value (arteriosclerotic rats; po, 100 mg/kg, 1008 h) was 2.6 ± 3.2 mg/dL and the “Aorta P” value (arteriosclerotic rats; po, 100 mg/kg, 1008 h) was 3.7 ± 4.3 mg/dL. The “Kidney Ca” value (arteriosclerotic rats; po, 100 mg/kg, 1008 h) was 1.6 ± 1.4 mg/dL and the “Kidney P” value (arteriosclerotic rats; po, 100 mg/kg, 1008 h) was 4.5 ± 1.4 mg/dL.
